In brackets after ≈: the same amount, converted by molar mass. Where two headings read alike, the source gives them in different places.
Assays:
[1] = tested on: 3PC cells; test: ATP-bioluminescence assay, reactive oxygen species-stimulated growth of cells; format: cell-based
[2] = tested on: DMBA-induced epidermal hyperplasia; test: Inhibition of DMBA-induced epidermal hyperplasia in mouse skin; format: in vivo, female SENCAR mice
Protocol: One of the best studied in vivo models for evaluation of environmental stress response effects on DNA and cell damage is the mouse skin system in which the skin is treated with a chemical compound known to damage DNA and cell structure and function. […] Exp. Med. Biol. 1995, 369, 167). […] Following dosing and treatment, skin DNA and cell structure and function were evaluated using three endpoints, epidermal hyperplasia, 8-OH-dG formation, and Ha-ras mutation. Each method is described briefly below. Seven week old, pathogen free, female SENCAR mice were purchased from the National Cancer Institute (NCI, Frederick, Md.). Mice were randomized by weight and separated into groups (n=5 mice per group). Experimental groups of mice were treated on shaved dorsal skin with antioxidants, 15 min prior to treatment with DMBA (25 μg per treatment). In topical experiments, different doses, i.e., 0.5, 1.0, 2.0, and/or 4.0 mg, of test or reference antioxidants per mouse were applied topically twice weekly for a total of 8 treatments (4 weeks). […] Negative control groups were treated with vehicle (acetone) only. […] Most antioxidants were administered in acetone. Antioxidants that were not soluble in acetone to the desired concentration, were dissolved in the necessary volume: mixture of acetone and water or ethanol. All topical treatments were administered in a final volume of 0.2 mL. […] The same control groups were maintained. Both positive and negative control groups were fed a standard AIN-93G diet (i.e., not supplemented with antioxidants). […] At sacrifice the shaved dorsal skin section was removed. […] Epidermal thickness was determined in each animal from at least 20 randomly selected sites per animal using formalin-fixed, paraffin-embedded 5 μm sections stained with hematoxylin and eosin. The remaining skin was frozen in liquid nitrogen. All frozen sections were stored at −70 C until analysis for isolation of DNA.

[3] = tested on: codon 61 of c-Ha-ras; test: DMBA-induced Ha-ras codon 61 mutation in mouse skin DNA; format: in vivo, female SENCAR mice; settings: acetone neg. control 3.05
Protocol: One of the best studied in vivo models for evaluation of environmental stress response effects on DNA and cell damage is the mouse skin system in which the skin is treated with a chemical compound known to damage DNA and cell structure and function. […] Exp. Med. Biol. 1995, 369, 167). […] Following dosing and treatment, skin DNA and cell structure and function were evaluated using three endpoints, epidermal hyperplasia, 8-OH-dG formation, and Ha-ras mutation. Each method is described briefly below. Seven week old, pathogen free, female SENCAR mice were purchased from the National Cancer Institute (NCI, Frederick, Md.). Mice were randomized by weight and separated into groups (n=5 mice per group). Experimental groups of mice were treated on shaved dorsal skin with antioxidants, 15 min prior to treatment with DMBA (25 μg per treatment). […] Epidermal thickness was determined in each animal from at least 20 randomly selected sites per animal using formalin-fixed, paraffin-embedded 5 μm sections stained with hematoxylin and eosin. […] DNA isolated from freshly-frozen tissues of 5 mice per group was analyzed for […] of c-Ha-ras by PCR analysis. […] The ratio of the amount of wild type DNA to mutated DNA was determined by quantifying intensity of 32P labeling on autoradiograms. […]

[4] = 3PC cells, read-out: Estimated IC50 (mg/L) in ATP Bioluminescence Assay

SMILES | IC50 [1, 4] | IC50 ([1]; ATP bioluminescence, calculated on ascorbic acid content, read-out: Estimated IC50 Based on vitamin C content) | IC50 ([1]; ATP bioluminescence, read-out: Estimated IC50 based on weight) | Inhibition of DMBA-Induced Epidermal Hyperplasia ([2]; dietary 1.0%) | Inhibition of DMBA-Induced Epidermal Hyperplasia ([2]; dietary 5.0%) | Inhibition of DMBA-Induced Epidermal Hyperplasia ([2]; topical application 0.5 mg) | Inhibition of DMBA-Induced Epidermal Hyperplasia ([2]; topical application 2.0 mg) | Ha-ras Formation ([3]; topical 4 mg + DMBA) | Ha-ras Formation ([3]; DMBA only (pos. control))
O=C1O[C@H]([C@@H](O)CO)C(O)=C1O [Ascorbic Acid, L-ascorbic acid] | 4.6 mg/L (≈ 26.1 µM) | 4.6 mg/L (≈ 26.1 µM) | 4.6 mg/L (≈ 26.1 µM) | 83% | 86% | 66% | 66% | 6.19 | 
CC1=C[C@H](O)CC(C)(C)[C@H]1/C=C/C(C)=C/C=C/C(C)=C/C=C/C=C(C)/C=C/C=C(C)/C=C/C1=C(C)C[C@@H](O)CC1(C)C [Lutein, lutein] | 70.8 mg/L (≈ 124 µM) |  |  |  |  |  |  |  | 
Cc1c2ccccc2c(C)c2c1ccc1ccccc12 [DMBA, dimethylbenzanthracene] |  |  |  |  |  |  |  |  | 18.39

From patent publication US20070243270A1, “METHODS AND KITS FOR REDUCING CELLULAR DAMAGE, INHIBITING FREE RADICAL PRODUCTION, AND SCAVENGING FREE RADICALS IN MAMMALS” (priority 2003, published 2007)
